In brackets after ≈: the same amount, converted by molar mass. Activity calls are given as the source filed them. The calls are words filed in the database; no cut-off is given here.
Tests used:
Escherichia coli [1] = assay: Antibacterial activity against Escherichia coli B 906 assessed as growth inhibition at 0.5% after 24 hr by agar disk diffusion method; type: functional
Escherichia coli [2] = assay: Antibacterial activity against Escherichia coli B 906 assessed as growth inhibition at 0.1% after 24 hr by agar disk diffusion method; type: functional
Aspergillus niger [3] = assay: Antifungal activity against Aspergillus niger assessed as growth inhibition after 24 to 72 hr by serial dilution method; type: functional
Yamadazyma tenuis [4] = assay: Antifungal activity against Candida tenuis assessed as growth inhibition after 24 to 72 hr by serial dilution method; type: functional
Mycobacterium [5] = assay: Antibacterial activity against Mycobacterium luteum B-917 assessed as growth inhibition after 24 to 72 hr by serial dilution method; type: functional
Staphylococcus aureus [6] = assay: Antibacterial activity against Staphylococcus aureus 209-P assessed as growth inhibition after 24 to 72 hr by serial dilution method; type: functional
Escherichia coli [7] = assay: Antibacterial activity against Escherichia coli B 906 assessed as growth inhibition after 24 to 72 hr by serial dilution method; type: functional, organism-based
Aspergillus niger [8] = assay: Antifungal activity against Aspergillus niger assessed as growth inhibition at 0.1% after 48 to 72 hr by agar disk diffusion method; type: functional
Aspergillus niger [9] = assay: Antifungal activity against Aspergillus niger assessed as growth inhibition at 0.5% after 48 to 72 hr by agar disk diffusion method; type: functional
Yamadazyma tenuis [10] = assay: Antifungal activity against Candida tenuis assessed as growth inhibition at 0.1% after 48 to 72 hr by agar disk diffusion method; type: functional
Yamadazyma tenuis [11] = assay: Antifungal activity against Candida tenuis assessed as growth inhibition at 0.5% after 48 to 72 hr by agar disk diffusion method; type: functional
Mycobacterium [12] = assay: Antibacterial activity against Mycobacterium luteum B-917 assessed as growth inhibition at 0.1% after 24 hr by agar disk diffusion method; type: functional
Mycobacterium [13] = assay: Antibacterial activity against Mycobacterium luteum B-917 assessed as growth inhibition at 0.5% after 24 hr by agar disk diffusion method; type: functional
Staphylococcus aureus [14] = assay: Antibacterial activity against Staphylococcus aureus 209-P assessed as growth inhibition at 0.1% after 24 hr by agar disk diffusion method; type: functional
Staphylococcus aureus [15] = assay: Antibacterial activity against Staphylococcus aureus 209-P assessed as growth inhibition at 0.5% after 24 hr by agar disk diffusion method; type: functional

Structure (SMILES) | diameter of the inhibition zone (DIZ) (Escherichia coli [1]) [mm] | diameter of the inhibition zone (DIZ) (Escherichia coli [2]) [mm] | MIC (Aspergillus niger [3]) [µg/mL] | MIC (Yamadazyma tenuis [4]) [µg/mL] | MIC (Mycobacterium [5]) | MIC (Staphylococcus aureus [6]) | MIC (Escherichia coli [7]) | diameter of the inhibition zone (DIZ) (Aspergillus niger [8]) [mm] | diameter of the inhibition zone (DIZ) (Aspergillus niger [9]) [mm] | diameter of the inhibition zone (DIZ) (Yamadazyma tenuis [10]) [mm] | diameter of the inhibition zone (DIZ) (Yamadazyma tenuis [11]) [mm] | diameter of the inhibition zone (DIZ) (Mycobacterium [12]) [mm] | diameter of the inhibition zone (DIZ) (Mycobacterium [13]) [mm] | diameter of the inhibition zone (DIZ) (Staphylococcus aureus [14]) [mm] | diameter of the inhibition zone (DIZ) (Staphylococcus aureus [15]) [mm]
O=C1C(SCc2ccc(Cl)cc2)=C(N2CCCC2)C(=O)c2ccccc21 | 0 | 0 | 15.6 (≈ 40.6 µM) | 7.8 (≈ 20.3 µM) | 125 µg/mL (≈ 326 µM) | 250 µg/mL (≈ 651 µM) | inactive | 0 | 0 | 0 | 0 | 8.7 | 14.4 | 0 | 0
CCOC1=C(Sc2nccn2C)C(=O)c2ccccc2C1=O | 0 | 0 | 15.6 (≈ 49.6 µM) | 250 (≈ 795 µM) | inactive | inactive | inactive | 0 | 12 | 0 | 0 | 0 | 0 | 0 | 0
COC(=O)CCSC1=C(Cl)C(=O)c2ccccc2C1=O | 0 | 0 | 7.8 (≈ 25.1 µM) | 1.9 (≈ 6.11 µM) | 7.8 µg/mL (≈ 25.1 µM) | inactive | inactive | 11 | 10.4 | 12.4 | 13 | 9 | 18 | 6 | 8
O=C1C(SCCOc2ccccc2)=C(SCCOc2ccccc2)C(=O)c2ccccc21 | 0 | 0 | 7.8 (≈ 16.9 µM) | 125 (≈ 270 µM) | inactive | inactive | inactive | 0 | 0 | 0 | 0 | 0 | 8 | 0 | 0
CCOC1=C(Sc2ccc(O)cc2)C(=O)c2ccccc2C1=O | 0 | 0 | 15.6 (≈ 47.8 µM) | 31.2 (≈ 95.6 µM) | 125 µg/mL (≈ 383 µM) | inactive | inactive | 0 | 0 | 0 | 0 | 0 | 0 | 0 | 0

Reference: ChEMBL document CHEMBL3045787, “Synthesis of novel 1,4-naphthoquinone derivatives: antibacterial and antifungal agents” (2013)
